Test results: patent publication US7449114B2, “Halogenated solvent remediation” (SRP Technologies, Inc., priority 2000, dated 2008)

Legend:
[1] = Surface tension of electron donor solutions, pendant drop method; format: physicochemical; conditions: for change in surface tension: 0% ethyl lactate
Protocol: (§1) Based on the field results presented in Example 1, laboratory studies were performed to confirm that the enhanced bioavailability of TCE observed in the field was due to co-solvent or surfactant behavior resulting from the use of high concentrations of sodium lactate. Two fundamental properties used to screen the co-solvent or surfactant properties of a solution are surface tension and interfacial tension. Surface tension measures the force per unit length along the interface between a liquid and air due to its tension. When a co-solvent or surfactant is present in an aqueous liquid at increasing concentrations, the surface tension of that liquid decreases. Interfacial tension is similar to surface tension except that it measures the force per unit length along the interface between two liquid phases arising from the surface free energy. The higher the interfacial tension between two liquids, the less likely one is to dissolve into the other, and the more difficult it is for one to be transported within the other. […]
The laboratory study performed to confirm the co-solvent properties of the high concentration electron donor solution measured the surface tension of electron donor solutions at various concentrations. Next, interfacial tensions between the same electron donor solutions and nonaqueous phase TCE were measured. […] Surface and interfacial tension measurements were made using the pendant drop method (M. J. Rosen, ed., Structure/Performance Relationships in Surfactants, American Chemical Society, Washington D.C. 329 (1984); R. D. Bagnall & P. A. Arundel, The Profile Area of Pendant Drops, 82 J. Phys. Chem. 898 (1978)) coupled with real-time video imaging (M. D. Herd et al., Interfacial Tensions of Microbial Surfactants Determined by Real-Time Video Imaging of Pendant Drops, Proceedings paper number SPE/DOE 24206 513-519, SPE/DOE Eighth Symposium on Enhanced Oil Recovery, Tulsa, Okla. (1992)). […]

[2] = Interfacial tension between electron donor solutions and nonaqueous phase TCE, pendant drop method; format: physicochemical; conditions: 0% ethyl lactate
Protocol: as §1
The laboratory study performed to confirm the co-solvent properties of the high concentration electron donor solution measured the surface tension of electron donor solutions at various concentrations. Next, interfacial tensions between the same electron donor solutions and nonaqueous phase TCE were measured. […]

[3] = tested on: chloroethenes (primarily TCE) in ground water; assay: Field evaluation of enhanced in situ bioremediation, Test Area North (Example 1); conditions: all wells receiving significant lactate concentrations
Protocol: A 1-year field evaluation of enhanced in situ bioremediation was performed at Test Area North (“TAN”) of the Idaho National Engineering and Environmental Laboratory. […] The locations of a 5,000 μg/L TCE isopleth (14); 1,000 μg/L TCE isopleth (16); 100 μg/L TCE isopleth (18); and 5 μg/L TCE isopleth (20) are shown by solid lines. FIG. 2 illustrates a cross section of this site, showing the surface of the ground (22), an approximately 63-m (210-feet) fractured basalt unsaturation zone (24) (not drawn to scale), an approximately 60-m (200-feet) fractured basalt aquifer (26), and an impermeable clay interbed (28). […]
The initial electron donor addition strategy involved continuous injection of potable water at 37.85 liters/minute (10 gpm) into Well TSF-05. […] It was determined that the continuous injection of clean water at 37.85 liters/minute (10 gpm) overwhelmed the flux of contaminants from the secondary source. […] This was intended to prevent significant quantities of electron donor from collecting in the injection well and to help prevent biofouling. […]
Eleven monitoring wells (i.e., TAN-D2, TAN-9, TAN-10A, TAN-25, TAN-26, TAN-27, TAN-28, TAN-29, TAN-30A, TAN-31, and TAN-37) were sampled biweekly and analyzed for electron donors, biological activity indicators, competing inorganic electron acceptors and their reduced products, chloroethenes, ethene, pH, temperature, and specific conductivity.

[4] = tested on: PCE/TCE plume in ground water; assay: Sodium lactate injection pilot test, Tennessee Air National Guard Site, Memphis (Example 3); conditions: after 8 months and 4 lactate injections
Text: Site Background. A site-wide Remedial Investigation (RI) identified a chlorinated solvent plume in a sandy aquifer approximately 35 to 60 feet (10.7 to 18.3 m) below ground surface at the 164th Airlift Wing at the Tennessee Air National Guard Site, Memphis, Tenn. The plume area targeted for treatment was over 2 acres (0.81 hectares). This unconfined saturated interval is overlain by an inorganic loess vadose zone and is separated from the deeper regional aquifer by a clay unit. PCE concentrations ranged from 5 to 1,000 μg/L in the target area, while TCE ranged from 100 to greater than 15,000 μg/L in the injection/monitoring wells. […] A pilot test of a sodium lactate injection system to enhance natural reductive dechlorination in the groundwater was approved by the Tennessee Department of Environment and Conservation, the Memphis and Shelby County Health Department, and the Shelby County Ground Water Control Board.
System Design. A three-dimensional model to simulate groundwater flow was developed using the MODFLOW simulator (U.S. Geological Survey). Once calibrated, model simulations were used to determine the optimal injection well locations, as well as the rate and duration of injection. Based on the results of other sodium lactate injection sites, a period of 60 days between injections was assumed. The optimal configuration was determined to be a 9-well injection system at an injection rate of 10 gallons per minute (gpm; 37.8 liters/minute) for 5 days.
Potable water was mixed with 60% sodium lactate to create a 1% solution. An existing 8-inch (20.3-cm) water line was tapped and connected to the distribution control header via a 4-inch (10.2-cm) line, which was housed in a portable 12-ft×14-ft (3.6-m×4.3-m) building. A double-check valve assembly was installed on the 4-inch (10.2-cm)water line to prevent back-siphoning of the injection solution into the 8-inch (20.3-cm) potable water line. Following a mixing zone with the potable water, the resulting 1% solution was delivered to the nine injection wells. […]

[5] = tested on: chlorinated ethenes (PCE, TCE) in groundwater; assay: Biostimulation pilot test, IR Site 40, Seal Beach (Example 4)
Protocol: A biostimulation pilot-test program for in situ anaerobic bioremediation of chlorinated ethenes in groundwater was conducted at Installation Restoration (IR) Program Site 40, Naval Weapons Station Seal Beach, Calif. IR Site 40 includes a concrete pit in a locomotive shop building and a gravel area north of and adjacent to the building. Oil and solvents spilled during locomotive maintenance collected in the pit and discharged to the gravel area via a drainpipe (FIG. 11). Groundwater was contaminated with chlorinated solvents, primarily PCE and trichloroethene (TCE). The plume extends over 100 meters (m) downgradient of the source area and is generally limited in extent to approximately 20 m below ground surface. The groundwater gradient is relatively flat and is influenced by tidal fluctuations. The net gradient direction is southeasterly. The Seal Beach National Wildlife Refuge lies downgradient of the site.
The tests were conducted in the area interpreted to have the highest PCE concentrations in groundwater. The tests were conducted over an 8-month period from August 2001 through mid-March 2002. Approximately 210,000 liters (55,500 gallons) of 3 percent sodium lactate solution was injected. A direct injection system was selected over recirculation to avoid reinjection of untreated water into the test cell. A 60 percent sodium lactate solution (JRW Technologies, Lenexa, Kans.) was diluted to 3 percent with potable water using a proportional injector (Dosatron International, Bordeaux, France). Lactate was injected at an average rate of approximately 3,550 gallons per week for the first 2 months. The average injection rate was then adjusted to approximately 750 gallons per week to maintain optimum electron-donor concentrations. No clogging or fouling effects were observed over the course of the pilot test. Water level measurements were performed during injection to assess the induced gradient.
Effects were monitored in seven wells in the pilot-test area. Two wells are located crossgradient and five downgradient of the injection well at distances ranging from approximately 2 to 30 m. Pretest groundwater samples were collected to establish baseline conditions. Weekly groundwater samples were collected during and analyzed on-site using field test kits for sulfate, ferrous iron, alkalinity, chemical oxygen demand (COD) (Hach, Loveland, Colo.), nitrate, and carbon dioxide (CHEMetrics, Calverton, Va.) and direct reading instrumentation for pH, temperature, conductivity, oxidation-reduction potential, and dissolved oxygen (YSI, Yellow Springs, Ohio). Monthly groundwater samples were analyzed off-site for volatile organic compounds, alkalinity, COD, anions, cations, total dissolved solids (Columbia Analytical Services, Kelso, Wash.), and dissolved gases (Performance Analytical, Simi Valley, Calif.). Samples were periodically analyzed for organic acids (Idaho National Engineering and Environmental Laboratory [INEEL], Idaho Falls, Id.), phospholipid fatty acids (Microbial Insights, Rockford, Tenn.), and DNA typing using quantitative polymerase chain reaction (PCR) and terminal restriction fragment length polymorphisms (T-RFLP) analyses (University of California, Berkeley, Calif.), according to methods well known in the art.

CCOC(=O)C(C)O (centres unmarked) [ethyl lactate]
effect on the solution's surface tension ([1]; 1% and 10% ethyl lactate added to sodium lactate solutions): pronounced effect

CC(O)C(=O)[O-].[Na+] (centres unmarked) [sodium lactate]
change in surface tension ([1]; sodium lactate 0.01 to 7%): almost no change
change in surface tension ([1]; sodium lactate increased to 30 and 60%): dramatic decrease
interfacial tension as % of the value at 0.1% sodium lactate ([2]; sodium lactate 30%): 47%
decrease of interfacial tension ([2]; sodium lactate increased from 0.1 to 3%): about 26%
reductive dechlorination of TCE to ethene [3]: Enhanced reductive dechlorination of TCE to ethene was observed
TCE concentrations ([4]; 10 of 15 wells): below detectable levels and/or the maximum contaminant level (MCL)
TCE concentration ([4]; well 03-010MW, pre-lactate around 5,690): approximately 50 μg/L
TCE concentration ([4]; well 03-020MW, pre-lactate around 4,600): ~130 µg/L
increase of PCE concentrations ([5]; at least one well, following injection): greater than fifteen-fold
reductive dechlorination of PCE and TCE ([5]; by the third month): dramatically transformed to cis-1,2-DCE
biomass (phospholipid fatty acid analysis) ([5]; close to the injection well): increased up to an order of magnitude
radius of influence within which PCE was converted to DCE ([5]; crossgradient): approximately 6 m
radius of influence within which PCE was converted to DCE ([5]; downgradient): ~8 m
